Experiment [1] addresses T1, Purine nucleoside phosphorylase (Bos taurus) (UniProt P55859).
T1 sequence (whole entry): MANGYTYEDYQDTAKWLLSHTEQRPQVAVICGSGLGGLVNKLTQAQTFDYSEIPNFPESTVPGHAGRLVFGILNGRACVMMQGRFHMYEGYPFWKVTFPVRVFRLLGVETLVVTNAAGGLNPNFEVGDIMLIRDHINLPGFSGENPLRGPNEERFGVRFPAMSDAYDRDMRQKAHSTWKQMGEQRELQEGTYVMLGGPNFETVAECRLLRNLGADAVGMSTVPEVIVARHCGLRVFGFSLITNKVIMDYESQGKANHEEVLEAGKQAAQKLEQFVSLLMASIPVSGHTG
Description: Inhibition of bovine PNP using 7-methylguanosine as substrate by spectrophotometric based coupled assay

Experiment [2] addresses T2, Purine nucleoside phosphorylase (Bos taurus, UniProt P55859, F200W). Description: Binding affinity to calf recombinant PNP Phe200Trp mutant expressed in Escherichia coli BL21 (DE3) by competitive binding fluorimetric analysis in presence of DFPP-DG.
For experiment [3], the target named is T2, Purine nucleoside phosphorylase.
Description: Binding affinity to calf recombinant PNP Phe200Trp mutant expressed in Escherichia coli BL21 (DE3) by fluorimetric titration analysis
Experiment [4] concerns the target T3, Purine nucleoside phosphorylase (Bos taurus, UniProt P55859).
T3 sequence (P55859 whole entry): T1 sequence (whole entry)

Experiment [5] has as its target T3, Purine nucleoside phosphorylase. The experiment in a line: Binding affinity to calf recombinant PNP expressed in Escherichia coli BL21 (DE3) by fluorimetric titration analysis.
The target in experiment [6] is Purine nucleoside phosphorylase (Bos taurus, UniProt P55859, F159W). The experiment in a line: Binding affinity to calf recombinant PNP Phe159Trp mutant expressed in Escherichia coli BL21 (DE3) by fluorimetric titration analysis.
Chain of Purine nucleoside phosphorylase (Bos taurus, UniProt P55859, F159W) (P55859 whole entry F159W): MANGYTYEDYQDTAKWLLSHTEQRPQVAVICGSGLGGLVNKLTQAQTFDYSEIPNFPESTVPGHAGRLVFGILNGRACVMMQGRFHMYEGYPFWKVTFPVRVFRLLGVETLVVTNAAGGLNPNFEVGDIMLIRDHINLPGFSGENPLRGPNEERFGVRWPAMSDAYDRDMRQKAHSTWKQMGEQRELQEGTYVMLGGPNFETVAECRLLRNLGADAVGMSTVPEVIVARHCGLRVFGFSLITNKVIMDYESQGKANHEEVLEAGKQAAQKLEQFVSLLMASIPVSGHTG
In experiment [7] the target is T3, Purine nucleoside phosphorylase. The experiment in a line: Binding affinity to calf recombinant PNP expressed in Escherichia coli BL21 (DE3) by isothermal titration calorimetry/ fluorimetric titration analysis. Background: ITC needs no label: the signal is the heat of the interaction.

T2 sequence (P55859 whole entry F200W): as the sequence (P55859 whole entry F159W) above, with W159F, F200W counted along it

`Nc1nc2[nH]cnc2c(=O)[nH]1`: the Kieq in experiment [1] worked out at 4 µM.
As for `C[C@@H](Cn1cnc2c(N)nc(N)nc21)OCP(=O)(O)O`, the Kd (as a rule, the free concentration of one partner at which half of the binding sites on the other are occupied at equilibrium, for simple one-to-one binding) in experiment [2] amounted to 860 nM. Moreover, the Kieq in experiment [1] was determined as 6 µM.
For the compound `Nc1nc2nc[nH]c2c(=O)[nH]1` [GUANINE], the Kd in experiment [3] is 160 nM; in experiment [4], 120 nM; in experiment [5] it was 160 nM; in experiment [6], 3300 nM.
Regarding `O=c1[nH]cnc2c([C@@H]3N[C@H](CO)[C@@H](O)[C@H]3O)c[nH]c12` [FORODESINE], the equilibrium dissociation constant (Kd) in experiment [4] amounted to 0.023 nM.
The compound `O=c1[nH]cnc2nc[nH]c12` had a Kieq in experiment [1] of 2.5 µM.
`Nc1nc2c(CNCCC(F)(F)P(=O)(O)O)c[nH]c2c(=O)[nH]1` showed a Kieq in experiment [1] of 0.0068 µM. Also, the equilibrium dissociation constant (Kd) in experiment [7] stood at 3.6 nM.
As to `Nc1nc2cc[nH]c2c(=O)[nH]1`, the results for the Kd in experiment [4] and in experiment [5] were 160 nM and 170 nM, respectively. The compound further came in with a Kieq in experiment [1] of 7.4 µM.
